From patent publication US20140357487A1, “PLANTS HAVING INCREASED TOLERANCE TO HERBICIDES” (BASF SE, priority 2011, published 2014)

How the values were obtained:
Details in all cases: normalized on Arabidopsis wild-type HPPD
[1] = test system: Chlamydomonas HPPD1; experiment: HPPD activity assay, Chlamydomonas HPPD1; type: biochemical, Chlamydomonas reinhardtii
Protocol: (§1) HPPD produces homogentisic acid and CO2 from 4-hydroxyphenylpyruvate (4-HPP) and O2. The activity assay for HPPD is based on the analysis of homogentisic acid by reversed phase HPLC.
(§2) The assay mixture can contain 150 mM potassium phosphate buffer pH 7.0, 50 mM L-ascorbic acid, 1 μM FeSO4 and 7 μg of purified enzyme in a total volume of 1 ml.
(§3) Inhibitors are dissolved in DMSO (dimethylsulfoxide) to a concentration of 20 mM or 0.5 mM, respectively. From this stock solution serial five-fold dilutions are prepared in DMSO, which are used in the assay. The respective inhibitor solution accounts for 1% of the assay volume. Thus, final inhibitor concentrations range from 200 μM to 2.5 nM or from 5 μM to 63 pM, respectively. After a preincubation of 30 min the reaction is started by adding 4-HPP to a final concentration of 0.1 mM. The reaction is allowed to proceed for 120 min at room temperature. The reaction is stopped by addition of 100 μl of 4.5 M phosphoric acid.
(§4) Activities are normalized by setting the uninhibited enzyme activity to 100%. IC50 values are calculated using non-linear regression.
The assay mixture can contain 150 mM potassium phosphate buffer pH 7.0, 50 mM L-ascorbic acid, 100 μM Catalase (Sigma-Aldrich), 1 μM FeSO4 and 0.2 units of purified HPPD enzyme in a total volume of 505 μl. […]
(§5) Inhibitors are dissolved in DMSO (dimethylsulfoxide) to a concentration of 0.5 mM. […] IC50 values are calculated using non-linear regression.
Using methods which are described in the above examples or well known in the art, purified, recombinant wildtype HPPD enzymes are characterized with respect to their kinetic properties and sensitivity towards HPPD inhibiting herbicides. Apparent michaelis constants (Km) and maximal reaction velocities (Vmax) are calculated by non-linear regression with the software GraphPad Prism 5 (GraphPad Software, La Jolla, USA) using a substrate inhibition model. […] Weighted means (by standard error) of Km and […] values are calculated from at least three independent experiments. […]

[2] = biological target: T1, Arabidopsis HPPD variant M335H, P336A, E363Q (Arabidopsis thaliana, UniProt P93836, E363Q/M335H/P336A); experiment: HPPD activity assay, Arabidopsis HPPD mutant M335H, P336A, E363Q; type: biochemical
T1 construct: PCR-based site directed mutagenesis of pEXP5-NT/TOPO®-AtHPPD is done; His6 (N); made in house; host or cells: E. coli BL21 (DE3)
T1 sequence (P93836 whole entry M335H/P336A/E363Q): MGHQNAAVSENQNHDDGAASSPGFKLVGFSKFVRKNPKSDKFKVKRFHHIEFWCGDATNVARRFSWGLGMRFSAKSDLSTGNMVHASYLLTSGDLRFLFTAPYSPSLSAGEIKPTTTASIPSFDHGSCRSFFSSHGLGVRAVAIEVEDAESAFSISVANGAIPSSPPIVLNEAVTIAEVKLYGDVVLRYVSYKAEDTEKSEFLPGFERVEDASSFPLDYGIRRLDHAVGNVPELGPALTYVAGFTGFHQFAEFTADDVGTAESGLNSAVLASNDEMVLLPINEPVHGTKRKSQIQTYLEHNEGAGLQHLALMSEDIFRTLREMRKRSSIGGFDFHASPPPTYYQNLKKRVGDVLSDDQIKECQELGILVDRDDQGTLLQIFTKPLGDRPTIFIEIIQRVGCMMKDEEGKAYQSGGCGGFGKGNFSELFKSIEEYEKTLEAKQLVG
Protocol: as §1, §2
as §3, with “Thus, final inhibitor concentrations range from 200 μM to 2.5 nM or from 5 μM to 63 pM, respectively.” left out
as §4
The assay mixture can contain 150 mM potassium phosphate buffer pH 7.0, 50 mM L-ascorbic acid, 100 μM Catalase (Sigma-Aldrich), 1 μM FeSO4 and 0.2 units of purified HPPD enzyme in a total volume of 505 μl. 1 unit is defined as the amount of enzyme that is required to produce 1 nmol of HGA per minute at 20° C.
Inhibitors are dissolved in DMSO (dimethylsulfoxide) to a concentration of 0.5 mM. […] IC50 values are calculated using non-linear regression. […]
Purified, mutant HPPD enzymes are obtained by the methods described above. […] Apparent michaelis constants (Km) and maximal reaction velocities (Vmax) are calculated by non-linear regression with the software GraphPad Prism 5 (GraphPad Software, La Jolla, USA) using a substrate inhibition model.
Field performance of the optimized HPPD enzyme, which is used as a herbicide tolerance trait may depend not only on its lack of sensitivity towards HPPD inhibiting herbicides but also on its activity. To assess the potential performance of a herbicide tolerance trait a tolerance index (TI) is calculated using the following formula: […]

[3] = test system: Kordia HPPD; experiment: HPPD activity assay, Kordia HPPD; type: biochemical
Protocol: as §1, §2
Inhibitors are dissolved in DMSO (dimethylsulfoxide) to a concentration of 20 mM or 0.5 mM, respectively. From this stock solution serial five-fold dilutions are prepared in DMSO, which are used in the assay. The respective inhibitor solution accounts for 1% of the assay volume. […]
Activities are normalized by setting the uninhibited enzyme activity to 100%. IC50 values are calculated using non-linear regression. […]
as §5
Using methods which are described in the above examples or well known in the art, purified, recombinant wildtype HPPD enzymes are characterized with respect to their kinetic properties and sensitivity towards HPPD inhibiting herbicides. Apparent michaelis constants (Km) and maximal reaction velocities (Vmax) are calculated by non-linear regression with the software GraphPad Prism 5 (GraphPad Software, La Jolla, USA) using a substrate inhibition model. […]

Row | Compound | Normalized tolerance index TI [1] | Normalized tolerance index TI [2] | Normalized tolerance index TI [3]
1 | COCCOCc1c(Cl)ccc(C2=C(O)c3ncccc3C(C)(C)S2(=O)=O)c1Cl [Inhibitor 3, 7-[2,4-dichloro-3-(2-methoxyethoxymethyl)phenyl]-5,5-dimethyl-6,6-dioxo-thiopyrano[4,3-b]pyridin-8-ol] | 0.1 | 0.3 | 0.7
2 | CC1=NOC(c2c(Cl)ccc(C3=C(O)c4ncccc4C(C)(C)S3(=O)=O)c2Cl)C1 (stereo not drawn) [Inhibitor 1, 7-[2,4-dichloro-3-(3-methyl-4,5-dihydroisoxazol-5-yl)phenyl]-5,5-dimethyl-6,6-dioxo-thiopyrano[4,3-b]pyridin-8-ol] | 2.1 | 5.5 | 22
